Data set [1] has as its target T1, adenosine A2 receptor (Rattus norvegicus, UniProt P30543).
T1 construct: Corpus striatum of a rat was suspended in ice-cooled 50 mM Tris; from tissue; host or cells: rat corpus striatum (washed membrane suspension)
Briefly: Adenosine A2 Receptor Binding Test (3H-CGS 21680, rat corpus striatum). As to conditions: [3H]CGS 21680, read-out: A2 Receptor Inhibition Rate; for inhibition at 1 µM: 10^-6 M; for inhibition at 0.1 µM: 10^-7 M.
Procedure: Adenosine Receptor Antagonistic Activity (Adenosine A2 Receptor Binding Test)
Corpus striatum of a rat was suspended in ice-cooled 50 mM Tris hydroxymethyl aminomethane hydrochloride (Tris HCl) buffer (pH 7.7) by using Polytron homogenizer (manufactured by Kinematicas Co.). The suspension was centrifuged (50,000×g, 10 minutes), and the precipitate was suspended again in the same amount of 50 mM Tris HCl buffer. The suspension was centrifuged under the same conditions, and the final precipitate was suspended once again in 50 mM Tris HCl buffer containing 10 mM magnesium chloride and 0.02 unit/mg tissue of adenosine deaminase (manufactured by Sigma Co.) to give a tissue concentration of 5 mg (wet weight)/ml.
To 1 ml of the tissue suspension thus prepared were added 50 μl of a mixture of N-ethylcarboxamidoadenosine labeled with tritium (^3 H-NECA: 26 Ci/mmol, manufactured by Amersham Co.) (final concentration: 3.8 nM) and cyclopentyladenosine (CPA, manufactured by Sigma Co.) (final concentration: 50 nM), and 50 μl of a test compound. The resulting mixture was allowed to stand at 25° C. for 120 minutes and then rapidly filtered by suction through a glass fiber filter (GF/C, manufactured by Whatman Co.). The filter was immediately washed three times with 5 ml each of ice-cooled 50 mM Tris HCl buffer, and transferred to a vial, and a scintillator (EX-H by Wako Pure Chemical Industries, Ltd.) was added thereto. The radioactivity on the filter was determined with a liquid scintillation counter (manufactured by Packard instrument Co.).
The similar procedure as above was repeated to determine the radioactivity bound to the A2 receptors using 50 μl of CGS 21680 labeled with tritium {^3 H-2-[p-(2-carboxyethyl)phenethylamino]-5'-(N-ethylcarboxamide)adenosine: 40 Ci/mmol, manufactured by New England Nuclear Co. [J. Pharmacol. Exp. Ther., 251, 888 (1989)]} (final concentration: 4.0 nM) in place of 50 μl of the mixture of N-ethylcarboxamidoadenosine labeled with tritium (^3 H-NECA: 26 Ci/mmol, manufactured by Amersham Co.) (final concentration: 3.8 nM) and cyclopentyladenosine (CPA, manufactured by Sigma Co.) (final concentration: 50 nM).
The inhibition rate of the test compound against the binding of A2 receptors (^3 H-CGS 21680 binding) was calculated by the following equation: [formula]

In data set [2] the test system is Haloperidol-Induced Catalepsy. Briefly: Effect on Haloperidol-Induced Catalepsy. As to conditions: 10 mg/kg po; for Total Score (catalepsy): sum of five mice, 25 points at the full, control 25; for inhibition in vivo at 10 mg/kg: Mus musculus, decrease in total score based on control group, read-out: Remission Rate. Format: in vivo, male ddY mice. As for the experimental part: Effect on Haloperidol-Induced Catalepsy Parkinson's disease is a clinical syndrome caused by degeneration of nigrostriatal dopaminergic neurons. […] The experiment was performed by using several groups of 5-weeks-old male ddY mice (weighing 22 to 24 g, Japan SLC), each group consisting of 5 mice. Haloperidol (Janssen Pharmaceutica) suspended in 0.3% CMC was intraperitoneally administered to each mouse at a dose of 1.0 mg/kg. Test compounds were suspended in injectable distilled water (Otsuka Pharmaceutical Co., Ltd.) containing Tween 80 [polyoxyethylene (20) sorbitan monooleate]. L-DOPA (Kyowa Hakko Kogyo Co., Ltd.) and benserazide hydrochloride (Kyowa Hakko Kogyo Co., Ltd.) were suspended in 0.3% CMC. One hour after the haloperidol administration, the test compound suspensions and the control suspension [injectable distilled water (Otsuka Pharmaceutical Co., Ltd.) containing Tween 80] containing no test compound were orally administered to separate groups of the mice (0.1 ml per 10 g of body weight). One hour after the administration of the test compound, the forelimbs of each mouse and subsequently the hindlimbs of the same mouse were placed on a 4.5 cm-high, 1.0 cm-wide bar and catalepsy was estimated. […] The catalepsy score and the standard of judgment are shown below. […] The effect of the compounds was evaluated by the total of the catalepsy scores of five mice in each group (25 points at the full).

Data set [3] in a line: Acute Toxicity Test (minimum lethal dose, po). The data set is classed as in vivo. The settings on record: mice, 7 days after administration. As for the experimental part:
Test compounds were orally administered to groups of dd-strain male mice weighing 20±1 g, each group consisting of three mice (po; 300 mg/kg). Seven days after the administration, minimum lethal dose (MLD) of each compound was determined by observing the mortality.
Therefore, these compounds can be safely used in a wide range of doses.

Data set [4] addresses T1, adenosine A2 receptor. Briefly: Adenosine A2 Receptor Binding Test (3H-NECA + CPA, rat corpus striatum). The settings on record: for inhibition at 1 µM: 10^-6 M. As for the experimental part:
Corpus striatum of a rat was suspended in ice-cooled 50 mM Tris hydroxymethyl aminomethane hydrochloride (Tris HCl) buffer (pH 7.7) by using Polytron homogenizer (manufactured by […] Co.). The suspension was centrifuged (50,000×g, 10 minutes), and the precipitate was suspended again in the same amount of 50 mM Tris HCl buffer. The suspension was centrifuged under the same conditions, and the final precipitate was suspended once again in 50 mM Tris HCl buffer containing 10 mM magnesium chloride and 0.02 unit/mg tissue of adenosine deaminase (manufactured by Sigma Co.) to give a tissue concentration of 5 mg (wet weight)/ml. […] The resulting mixture was allowed to stand at 25° C. for 120 minutes and then rapidly filtered by suction through a glass fiber filter (GF/C, manufactured by Whatman Co.). […] The radioactivity on the filter was determined with a liquid scintillation counter (manufactured by Packard instrument Co.). […] The Ki values shown in the table were calculated by the following equation: [formula]

The mark [5] stands for this setting: 3H-NECA, read-out: A2 Receptor Inhibition Rate.
The mark [6] stands for this setting: 10^-4 M, 3H-NECA, read-out: A2 Receptor Inhibition Rate.
Setting [7] is: 10^-5 M, 3H-NECA, read-out: A2 Receptor Inhibition Rate.
The mark [8] stands for this setting: read-out: A2 Receptor Inhibition Rate.

Structures are written as SMILES. Like-named read-outs stand apart in the source and are kept apart here.

T1 sequence (P30543 whole entry): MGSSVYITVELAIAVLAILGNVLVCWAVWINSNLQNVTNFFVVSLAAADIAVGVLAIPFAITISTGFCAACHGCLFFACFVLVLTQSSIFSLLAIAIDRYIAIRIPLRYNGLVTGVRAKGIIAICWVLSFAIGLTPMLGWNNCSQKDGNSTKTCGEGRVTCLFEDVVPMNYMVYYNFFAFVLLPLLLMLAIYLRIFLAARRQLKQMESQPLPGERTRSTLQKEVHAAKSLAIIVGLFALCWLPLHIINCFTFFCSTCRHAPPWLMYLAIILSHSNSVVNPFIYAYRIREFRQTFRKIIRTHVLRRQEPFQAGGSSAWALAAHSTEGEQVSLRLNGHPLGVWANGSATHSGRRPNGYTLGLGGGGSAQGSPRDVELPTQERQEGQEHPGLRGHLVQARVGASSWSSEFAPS

Consider `CCn1c(=O)c2c(nc(/C=C/c3ccc(C(C)=O)c(OC)c3)n2C)n(CC)c1=O` [Compound 30, (E)-8-(4-Acetyl-3-methoxystyryl)-1,3-diethyl-7-methylxanthine], for which, at adenosine A2 receptor [1], the inhibition (as a rule, the relative decrease from the control value, in per cent) at 1 µM amounted to 95% and the inhibition at 0.1 µM is 83%.

Consider `CCCn1c(=O)c2c(nc(/C=C/c3cc(OC)c(OC)cc3S(=O)(=O)Nc3ccccc3)n2C)n(CCC)c1=O` [Compound 10, (E)-N-Phenyl-4,5-dimethoxy-β-(7-methyl-1,3-dipropylxanthin-8-yl)styrene-2-sulfonamide], for which, in data set [2], the “Total Score (catalepsy)” value is on record as 17 and the inhibition in vivo at 10 mg/kg came to 32%.

On to `CCCn1c(=O)c2c(nc(/C=C\c3ccc(C(=O)O)cc3)n2C)n(CCC)c1=O` [Compound 18, (Z)-β-(7-Methyl-1,3-dipropylxanthin-8-yl)styrene-4-carboxylic acid], for which the “MLD (minimum lethal dose)” value in data set [3] is given as more than 300 mg/kg. The inhibition at 1 µM at adenosine A2 receptor [4] (setting [5]) is 72%.

With `CCCn1c(=O)c2c(nc(/C=C/c3ccc(S(=O)(=O)O)cc3)n2C)n(CCC)c1=O` [Compound 31, (E)-β-(7-Methyl-1,3-dipropylxanthin-8-yl)styrene-4-sulfonic acid], at adenosine A2 receptor [1], the inhibition at 1 µM was found to be 89% and the inhibition at 0.1 µM is 56%.

Consider `CCCn1c(=O)c2c(nc(/C=C\c3ccc(C(=O)OC)cc3)n2C)n(CCC)c1=O` [Compound 8, (Z)-β-(7-methyl-1,3-dipropylxanthin-8-yl)styrene-4-carboxylic acid methyl ester], for which the “MLD (minimum lethal dose)” value in data set [3] is more than 300 mg/kg. Moreover, the inhibition at 100 µM on adenosine A2 receptor [4] (setting [6]) was 101%. On adenosine A2 receptor [4] (setting [7]), the inhibition at 10 µM stood at 92%.

As for `CCn1c(=O)c2c(nc(/C=C/c3ccc(C(=O)OC)cc3OC)n2C)n(CC)c1=O` [Compound 20, (E)-β-(1,3-Diethyl-7-methylxanthin-8-yl) -2-methoxystyrene-4-carboxylic acid methyl ester], at adenosine A2 receptor [1], the inhibition at 1 µM turned out to be 88% and the inhibition at 0.1 µM amounted to 69%.

With `CCCn1c(=O)c2c(nc(/C=C/c3cc(OC)c(OC)c(OC)c3S(=O)(=O)O)n2C)n(CCC)c1=O` [Compound 11, (E)-β-(7-Methyl-1,3-dipropylxanthin-8-yl)-3,4,5-trimethoxystyrene-2-sulfonic acid], the inhibition at 100 µM on adenosine A2 receptor [4] (setting [6]) is 93%. Also, the inhibition at 10 µM at adenosine A2 receptor [4] (setting [7]) was 93%. Besides, in data set [2], the “Total Score (catalepsy)” value was determined as 19 and the inhibition in vivo at 10 mg/kg was determined as 24%.

In the case of `CCCn1c(=O)c2c(nc(/C=C/c3cc(OC)c(OC)cc3S(=O)(=O)N(CC)CC)n2C)n(CCC)c1=O` [Compound 2, (E)-N,N-Diethyl-4,5-dimethoxy-β-(7-methyl-1,3-dipropylxanthin-8-yl)styrene-2-sulfonamide], the inhibition at 100 µM on adenosine A2 receptor [4] (setting [6]) came to 112%. In addition, the inhibition at 10 µM on adenosine A2 receptor [4] (setting [7]) is 97%.

`CCCn1c(=O)c2c(nc(/C=C/c3ccc(C(=O)O)cc3OC)n2C)n(CCC)c1=O` [Compound 23, (E)-2-Methoxy-β-(7-methyl-1,3-dipropylxanthin-8-yl)styrene-4-carboxylic acid]: at adenosine A2 receptor [1], the inhibition at 1 µM stood at 95% and the inhibition at 0.1 µM was found to be 70%.

For the compound `CCCn1c(=O)c2c(nc(/C=C/c3cc(OC)c(OC)cc3S(=O)(=O)N3CCCCC3)n2C)n(CCC)c1=O` [Compound 4, (E)-4,5-Dimethoxy-β-(7-methyl-1,3-dipropylxanthin-8-yl)-2-piperidinosulfonylstyrene], at adenosine A2 receptor [4] (setting [6]), the inhibition at 100 µM amounted to 60%. Moreover, at adenosine A2 receptor [4] (setting [7]), the inhibition at 10 µM was 74%. Also, in data set [2], the “Total Score (catalepsy)” value turned out to be 11 and the inhibition in vivo at 10 mg/kg amounted to 56%.

In the case of `CCCn1c(=O)c2c(nc(/C=C/c3cc(OC)c(OC)cc3S(=O)(=O)O)n2C)n(CCC)c1=O` [Compound 1, (E)-4,5-Dimethoxy-β-(7-methyl-1,3-dipropylxanthin-8-yl)styrene-2-sulfonic acid], the “MLD (minimum lethal dose)” value in data set [3] is listed as more than 300 mg/kg. Also, the Ki (as a rule, the equilibrium dissociation constant of an inhibitor or competing ligand from its target) on adenosine A2 receptor [4] (3H-NECA) came to 670 nM. On adenosine A2 receptor [4] (setting [8]), the inhibition at 10 µM turned out to be 80% and the inhibition at 100 µM is 95%.

Turning to `CCCn1c(=O)c2c(nc(/C=C/c3cc(OC)c(OC)cc3S(=O)(=O)N(C)CCN(C)C)n2C)n(CCC)c1=O` [Compound 6, (E)-N-[2-(Dimethylamino)ethyl]-N-methyl-4,5-dimethoxy-β-(7-methyl-1,3-dipropylxanthin-8-yl)styrene-2-sulfonamide], in data set [2], the “Total Score (catalepsy)” value came to 19 and the inhibition in vivo at 10 mg/kg is 24%.

As to `CCCn1c(=O)c2c(nc(/C=C/c3ccc(C(=O)OC)cc3)n2C)n(CCC)c1=O` [Compound 7, (E)-β-(7-Methyl-1,3-dipropylxanthin-8-yl)styrene-4-carboxylic acid methyl ester], the inhibition at 100 µM at adenosine A2 receptor [4] (setting [6]) was found to be 92%. Besides, the inhibition at 10 µM on adenosine A2 receptor [4] (setting [7]) amounted to 77%. Further, in data set [2], the “Total Score (catalepsy)” value was determined as 11 and the inhibition in vivo at 10 mg/kg came to 56%.

For the compound `CCCn1c(=O)c2c(nc(/C=C/c3ccc(C(=O)O)cc3)n2C)n(CCC)c1=O` [Compound 19, (E)-β-(7-Methyl-1,3-dipropylxanthin-8-yl)styrene-4-carboxylic acid], the inhibition at 1 µM at adenosine A2 receptor [4] (setting [5]) is 94%. Also, on adenosine A2 receptor [4] (10^-7 M, 3H-NECA, read-out: A2 Receptor Inhibition Rate), the inhibition at 0.1 µM is 68%.

`CCCn1c(=O)c2c(nc(/C=C/c3ccc(OC)c(C(C)=O)c3)n2C)n(CCC)c1=O` [Compound 26, (E)-8-(3-Acetyl-4-methoxystyryl)-7-methyl-1,3-dipropylxanthine]: at adenosine A2 receptor [1], the inhibition at 1 µM is 93% and the inhibition at 0.1 µM was 66%.

On to `CCn1c(=O)c2c(nc(/C=C/c3ccc(C(=O)O)cc3OC)n2C)n(CC)c1=O` [Compound 22, (E)-β-(1,3-Diethyl-7-methylxanthin-8-yl)-2-methoxystyrene-4-carboxylicacid], for which, at adenosine A2 receptor [1], the inhibition at 1 µM is 92% and the inhibition at 0.1 µM is 60%.

Regarding `CCCn1c(=O)c2c(nc(/C=C/c3ccc(C(=O)OC)cc3OC)n2C)n(CCC)c1=O` [Compound 21, (E)-2-Methoxy-β-(7-methyl-1,3-dipropylxanthin-8-yl)styrene-4-carboxylic acid methyl ester], on adenosine A2 receptor [1], the inhibition at 1 µM was 94% and the inhibition at 0.1 µM was determined as 80%.

With `CCCn1c(=O)c2c(nc(/C=C/c3cc(C)c(C)cc3S(=O)(=O)O)n2C)n(CCC)c1=O` [Compound 15, (E) -4,5-Dimethyl-β-(7-methyl-1,3-dipropylxanthin-8-yl)styrene-2-sulfonicacid], in data set [3], the “MLD (minimum lethal dose)” value is given as more than 300 mg/kg.

With `CCCn1c(=O)c2c(nc(/C=C/c3cc(OC)c(OC)c(OC)c3S(=O)(=O)N(C)CCN(C)C)n2C)n(CCC)c1=O` [Compound 13, (E)-N-[2-(Dimethylamino)ethyl]-N-methyl-β-(7-methyl-1,3-dipropylxanthin-8-yl)-3,4,5-trimethoxystyrene-2-sulfonamide], the inhibition at 100 µM at adenosine A2 receptor [4] (setting [6]) amounted to 89%. Also, the inhibition at 10 µM at adenosine A2 receptor [4] (setting [7]) came to 69%.

With `CCn1c(=O)c2c(nc(/C=C/c3ccc(F)c(C(C)=O)c3)n2C)n(CC)c1=O` [Compound 28, (E)-8-(3-Acetyl-4-fluorostyryl)-1,3-diethyl-7-methylxanthine], on adenosine A2 receptor [1], the inhibition at 1 µM came out at 86% and the inhibition at 0.1 µM was determined as 76%.

Take `CCCn1c(=O)c2c(nc(/C=C/c3cc(OC)c(OC)c(OC)c3S(N)(=O)=O)n2C)n(CCC)c1=O` [Compound 12, (E)-β-(7-Methyl-1,3-dipropylxanthin-8-yl)-3,4,5-trimethoxystyrene-2-sulfonamide]: the inhibition at 100 µM at adenosine A2 receptor [4] (setting [6]) was 76%. Also, the inhibition at 10 µM at adenosine A2 receptor [4] (setting [7]) worked out at 68%. Further, in data set [2], the “Total Score (catalepsy)” value is 15 and the inhibition in vivo at 10 mg/kg is 40%.

For `CCCN(CCC)S(=O)(=O)c1cc(OC)c(OC)cc1/C=C/c1nc2c(c(=O)n(CCC)c(=O)n2CCC)n1C` [Compound 3, (E)-N,N-Dipropyl-4,5-dimethoxy-β-(7-methyl-1,3-dipropylxanthin-8-yl)styrene-2-sulfonamide], the inhibition at 100 µM at adenosine A2 receptor [4] (setting [6]) was determined as 91%. The inhibition at 10 µM on adenosine A2 receptor [4] (setting [7]) was 92%. Further, in data set [2], the “Total Score (catalepsy)” value was determined as 20 and the inhibition in vivo at 10 mg/kg was found to be 20%.

The values above are taken from patent publication US5670498A, “8-substituted styryl xanthine derivatives” (Kyowa Hakko Kogyo Co., Ltd., priority 1992, dated 1997).
